Source: US9862726B2, “Opioid receptor modulating oxabicyclo[2.2.2]octane morphinans” (PURDUE PHARMA L.P., priority 2013, dated 2018)
Where two headings read alike, the source gives them in different places.

Legend:
[1] = molecular target: κ-opioid receptor (Homo sapiens (Human), UniProt P41145); experiment: κ-opioid receptor functional assay (U-2 OS cells); assay type: biochemical
Method: Functional [^35S]GTPγS binding assays were conducted as follows. κ opioid receptor membrane solution was prepared by sequentially adding final concentrations of 0.026 μg/μl κ membrane protein (in-house), 10 μg/mL saponin, 3 μM GDP and 0.20 nM [^35S]GTPγS to binding buffer (100 mM NaCl, 10 mM MgCl2, 20 mM HEPES, pH 7.4) on ice. The prepared membrane solution (190 μl/well) was transferred to 96-shallow well polypropylene plates containing 10 μl of 20× concentrated stock solutions of agonist prepared in DMSO. Plates were incubated for 30 min at a temperature of about 25° C. with shaking. Reactions were terminated by rapid filtration onto 96-well Unifilter GF/B filter plates (Perkin Elmer, Shelton, Conn.) using a 96-well tissue harvester (Packard) and followed by three filtration washes with 200 μl ice-cold binding buffer (10 mM NaH2PO4, 10 mM Na2HPO4, pH 7.4). Filter plates were subsequently dried at 50° C. for 2-3 hours. Fifty μl/well scintillation cocktail (Perkin Elmer, Shelton, Conn.) was added and plates were counted in a Packard Top-Count for 1 min/well.
κ GTP EC50 is the concentration of a compound providing 50% of the maximal response for the compound at a κ receptor.
κ GTP Emax (%) is the maximal effect elicited by a compound relative to the effect elicited by U69,593.
The following TABLE 5 provides results on the activity response of certain Compounds of the Invention at the μ- and κ-opioid receptors determined as described above using U-2 OS cells.

[2] = molecular target: recombinant human kappa opioid receptor (κ) (Homo sapiens (Human), UniProt P41145); experiment: κ-opioid receptor radioligand dose-displacement binding assay (HEK-293 cells)
Method: Membranes from HEK-293 cells, CHO cells or U-2 OS cells expressing the recombinant human kappa opioid receptor (κ) were prepared by lysing cells in ice cold hypotonic buffer (2.5 mM MgCl2, 50 mM HEPES, pH 7.4) (10 mL/10 cm dish) followed by homogenization with a tissue grinder/Teflon pestle. Membranes from a cell line naturally expressing kappa opioid receptor can also be used. Membranes were collected by centrifugation at 30,000×g for 15 min at 4° C. and pellets were resuspended in hypotonic buffer to a final concentration of 1-3 mg/mL. Protein concentrations were determined using the BioRad protein assay reagent with bovine serum albumen as standard. Aliquots of κ receptor membranes were stored at −80° C.
Radioligand dose displacement assays used 0.4 nM [^3H]-U69,593 (GE Healthcare, Piscataway, N.J.; 40 Ci/mmole) with 15 μg membrane protein (recombinant κ opioid receptor expressed in HEK 293 cells; in-house prep) in a final volume of 200 μl binding buffer (5% DMSO, 50 mM Trizma base, pH 7.4). Non-specific binding was determined in the presence of 10 μM unlabeled naloxone or U69,593. All reactions were performed in 96-well polypropylene plates for 1 hour at a temperature of about 25° C. Binding reactions were terminated by rapid filtration onto 96-well Unifilter GF/C filter plates (Perkin Elmer, Shelton, Conn.) presoaked in 0.5% polyethylenimine (Sigma). Harvesting was performed using a 96-well tissue harvester (Perkin Elmer, Shelton, Conn.) followed by five filtration washes with 200 μl ice-cold binding buffer. Filter plates were subsequently dried at 50° C. for 1-2 hours. Fifty μl/well scintillation cocktail (Perkin Elmer, Shelton, Conn.) was added and plates were counted in a Packard Top-Count for 1 min/well.
(§1) In TABLE 3, binding affinity of certain Compounds of the Invention to the μ- and κ-opioid receptors was determined as described above using HEK-293 cells.

[3] = molecular target: T1, μ-opioid receptor (Homo sapiens (Human), UniProt P35372); experiment: μ-opioid receptor [35S]GTPγS functional assay (HEK-293 cells); assay type: biochemical
Method: (§2) [^35S]GTPγS functional assays were conducted using freshly thawed μ-receptor membranes prepared in-house from a cell line expressing recombinant μ opioid receptor in a HEK-293, CHO or U-2 OS cell background, or purchased from a commercial source (Perkin Elmer, Shelton, Conn.; or DiscovRx, Fremont, Calif.). Assay reactions were prepared by sequentially adding the following reagents to binding buffer (100 mM NaCl, 10 mM MgCl2, 20 mM HEPES, pH 7.4) on ice (final concentrations indicated): membrane protein (0.026 mg/mL), saponin ([…]), GDP ([…]) and [^35S]GTPγS (0.20 nM; Perkin Elmer, Shelton, Conn.). The prepared membrane solution (190 μl/well) was transferred to 96-shallow well polypropylene plates containing 10 μl of 20× concentrated stock solutions of the agonist [D-Ala^2, N-methyl-Phe^4 Gly-ol^5]-enkephalin (DAMGO) prepared in dimethyl sulfoxide (DMSO). Plates were incubated for 30 min at about 25° C. with shaking. Reactions were terminated by rapid filtration onto 96-well Unifilter GF/B filter plates (Perkin Elmer, Shelton, Conn.) using a 96-well tissue harvester (Perkin Elmer, Shelton, Conn.) followed by three filtration washes with 200 μl of ice-cold wash buffer (10 mM NaH2PO4, 10 mM Na2HPO4, pH 7.4). Filter plates were subsequently dried at 50° C. for 2-3 hours. BetaScint scintillation cocktail (Perkin Elmer, Shelton, Conn.) was added (50 μl/well) and plates were counted using a Packard Top-Count for 1 min/well. Data were analyzed using the sigmoidal dose-response curve fitting functions in GraphPad PRISM v. 3.0, or an in-house function for non-linear, sigmoidal dose-response curve-fitting. [^35S]GTPγS functional assays can also be conducted using freshly thawed μ-receptor membranes prepared from a cell line expressing recombinant μ opioid receptor in a CHO-K1 cell background.
(§3) μ GTP EC50 is the concentration of a compound providing 50% of the maximal response for the compound at a μ-opioid receptor.
(§4) μ GTP Emax (%) is the maximal effect elicited by a compound relative to the effect elicited by DAMGO, a standard μ agonist.
In TABLE 4, activity response of certain Compounds of the Invention to the μ- and κ-opioid receptors was determined as described above for functional assays using HEK-293 cells.

[4] = molecular target: T1, μ-opioid receptor; experiment: μ-opioid receptor functional assay (U-2 OS cells); assay type: biochemical
Method: as §2, §3, §4

[5] = molecular target: T1, μ-opioid receptor; experiment: μ-opioid receptor radioligand dose-displacement binding assay (HEK-293 cells)
Method: Radioligand dose-displacement binding assays for μ-opioid receptors used 0.3 nM [^3H]-diprenorphine (Perkin Elmer, Shelton, Conn.), with […] membrane protein/well in a final volume of 500 μl binding buffer (10 mM MgCl2, 1 mM EDTA, 5% DMSO, 50 mM HEPES, pH 7.4). Reactions were carried out in the absence or presence of increasing concentrations of unlabeled naloxone. All reactions were conducted in 96-deep well polypropylene plates for 2 hours at room temperature. Binding reactions were terminated by rapid filtration onto 96-well Unifilter GF/C filter plates (Perkin Elmer, Shelton, Conn.), presoaked in 0.5% polyethylenimine using a 96-well tissue harvester (Perkin Elmer, Shelton, Conn.) followed by performing three filtration washes with 500 μl of ice-cold binding buffer. Filter plates were subsequently dried at 50° C. for 2-3 hours. BetaScint scintillation cocktail (Perkin Elmer, Shelton, Conn.) was added (50 μl/well), and plates were counted using a Packard Top-Count for 1 min/well. The data were analyzed using the one-site competition curve fitting functions in GraphPad PRISM™ v. 3.0 or higher (San Diego, Calif.), or an in-house function for one-site competition curve-fitting.
as §1

[6] = U-2 OS cells, relative to U69,593
[7] = HEK-293 cells, relative to DAMGO
[8] = U-2 OS cells, relative to DAMGO
[9] = U-2 OS cells, read-out: Opioid Receptor κ EC50
[10] = U-2 OS cells, read-out: Opioid Receptor μ EC50

| Compound | EC50 [1] | Emax [1, 6] | Ki [2] | EC50 [3] | Emax [3, 7] | EC50 [4] | Emax [4, 8] | Ki [5] | EC50 [1, 9] | EC50 ([3]; HEK-293 cells, bound given in μM, read-out: Opioid Receptor μ EC50) | EC50 [4, 10] | Opioid Receptor κ Emax (%) [1, 6] | EC50 ([3]; HEK-293 cells, read-out: Opioid Receptor μ EC50) | Opioid Receptor μ Emax (%) [3, 7] | Opioid Receptor μ Emax (%) [4, 8] |
| --- | --- | --- | --- | --- | --- | --- | --- | --- | --- | --- | --- | --- | --- | --- | --- |
| COc1ccc2c(c1)[C@]13CCN(CC4CC4)[C@H](C2)[C@]12CC[C@@](NS(=O)(=O)c1ccc(Cl)cc1)(CO2)C3 [Compound 24, 4-Chloro-N-((4bR,6S,8aS,9R)-11-(cyclopropylmethyl)-3-methoxy-5,6,7,8,9,10-hexahydro-9,4b-(epiminoethano)-8a,6-(epoxymethano)phenanthren-6-yl)-benzenesulfonamide] | 0.11 ± 0.011 nM | 114 ± 2.73% | 0.057 ± 0.01 nM | > 20 µM | 6% | 0.25 ± 0.014 nM | 71.7 ± 0.67% | 0.29 ± 0.043 nM |  |  |  |  |  |  |  |
| COc1ccc2c(c1)[C@]13CCN(CC4CC4)[C@H](C2)[C@]12CC[C@@](N(Cc1ccccc1)Cc1ccccc1)(CO2)C3 [Compound 7, (4bR,6S,8aS,9R)—N,N-dibenzyl-11-(cyclopropylmethyl)-3-methoxy-5,6,7,8,9,10-hexahydro-9,4b-(epiminoethano)-8a,6-(epoxymethano)phenanthren-6-amine] |  | 112 ± 3.93% | 5.35 ± 0.91 nM |  | 5.67 ± 1.86% |  | 84.3 ± 2.85% | 64.3 ± 21.6 nM | 2.99 ± 0.33 nM | > 20 µM | 26.4 ± 3.96 nM |  |  |  |  |
| 1-Chlorophenyl-3-((4bR,6S,8aS,9R)-11-(cyclopropylmethyl)-3-methoxy-5,6,7,8,9,10-hexahydro-9,4b-(epiminoethano)-8a,6-(epoxymethano)phenanthren-6-yl)urea [Compound 25] |  |  | 2.56 ± 0.36 nM |  |  |  |  | 3.51 ± 0.45 nM | 16.1 ± 0.82 nM |  | 4.33 ± 0.15 nM | 121.3 ± 4.67% | 0.0866 ± 0.0115 µM | 18.3 ± 0.88% | 99.7 ± 0.88% |
| CC(C)(C)C(=O)N[C@]12CC[C@@]3(OC1)[C@H]1Cc4ccc(O)cc4[C@@]3(CCN1CC1CC1)C2 [Compound 26, N-((4bR,6S,8aS,9R)-11-(cyclopropylmethyl)-3-hydroxy-5,6,7,8,9,10-hexahydro-9,4b-(epiminoethano)-8a,6-(epoxymethano)phenanthren-6-yl)pivalamide] | 0.031 nM | 91.7 ± 2.73% | 0.059 ± 0.01 nM | > 20 µM | 4 ± 1.53% | 0.28 ± 0.01 nM | 89 ± 3.06% | 0.056 ± 0.01 nM |  |  |  |  |  |  |  |
| COc1ccc2c(c1)[C@]13CCN(CC4CC4)[C@H](C2)[C@]12CC[C@@](NCC1CCCCC1)(CO2)C3 [Compound 11, (4bR,6S,8aS,9R)—N-(cyclohexylmethyl)-11-(cyclopropylmethyl)-3-methoxy-5,6,7,8,9,10-hexahydro-9,4b-(epiminoethano)-8a,6-(epoxymethano)phenanthren-6-amine] | 0.042 nM | 101.3 ± 0.88% | 0.052 ± 0.015 nM | 0.00178 ± 5e-05 µM | 75.7 ± 4.1% | 0.033 nM | 101 ± 2.08% | 0.93 ± 0.11 nM |  |  |  |  |  |  |  |
| COc1ccc2c(c1)[C@]13CCN(CC4CC4)[C@H](C2)[C@]12CC[C@@](NC(=O)CC(F)(F)F)(CO2)C3 [Compound 23, N-((4bR,6S,8aS,9R)-11-(cyclopropylmethyl)-3-methoxy-5,6,7,8,9,10-hexahydro-9,4b-(epiminoethano)-8a,6-(epoxymethano)phenanthren-6-yl)-3,3,3-trifluoropropanamide] | 1.79 ± 0.25 nM | 115 ± 3.06% | 0.66 ± 0.22 nM | 0.419 ± 0.108 µM | 39.5 ± 2.1% | 21.6 ± 1.38 nM | 98.7 ± 1.45% | 136 ± 35.7 nM |  |  |  |  |  |  |  |
| COc1ccc2c(c1)[C@]13CCN(CC4CC4)[C@H](C2)[C@]12CC[C@@](NC(=O)CCc1ccccc1)(CO2)C3 [Compound 19, N-((4bR,6S,8aS,9R)-11-(cyclopropylmethyl)-3-methoxy-5,6,7,8,9,10-hexahydro-9,4b-(epiminoethano)-8a,6-(epoxymethano)phenanthren-6-yl)-3-phenylpropanamide] | 2.84 ± 0.33 nM | 109.7 ± 0.33% | 1.58 ± 0.44 nM | 0.0412 ± 0.0128 µM | 29.8 ± 1.96% | 1.37 ± 0.11 nM | 102 ± 5.7% | 9.26 ± 3.2 nM |  |  |  |  |  |  |  |
| COc1ccc2c(c1)[C@]13CCN(CC4CC4)[C@H](C2)[C@]12CC[C@@](NCc1ccccc1)(CO2)C3 [Compound 10, (4bR,6S,8aS,9R)-N-benzyl-11-(cyclopropylmethyl)-3-methoxy-5,6,7,8,9,10-hexahydro-9,4b-(epiminoethano)-8a,6-(epoxymethano)phenanthren-6-amine] | 0.23 ± 0.01 nM | 107 ± 5.36% | 0.026 nM | 0.0533 ± 0.00393 µM | 31.7 ± 1.67% | 2.08 ± 0.12 nM | 110 ± 2.52% | 25.9 ± 5.36 nM |  |  |  |  |  |  |  |
| COc1ccc2c(c1)[C@]13CCN(CC4CC4)[C@H](C2)[C@]12CC[C@@](NC(=O)C1CC1)(CO2)C3 [Compound 22, N-((4bR,6S,8aS,9R)-11-(cyclopropylmethyl)-3-methoxy-5,6,7,8,9,10-hexahydro-9,4b-(epiminoethano)-8a,6-(epoxymethano)phenanthren-6-yl)cyclopropanecarboxamide] | 0.9 ± 0.096 nM | 111 ± 2.6% | 0.3 ± 0.055 nM | 0.939 ± 0.394 µM | 18 ± 0.41% | 71.2 ± 10.8 nM | 90.7 ± 2.73% | 126 ± 20.7 nM |  |  |  |  |  |  |  |
